The values below come from patent publication US10457677B2 (priority 2015, dated 2019).

Like-named read-outs stand apart in the source and are kept apart here.

Assay [1] has as its target purified human recombinant ATM (ataxia telangiectasia mutated), full length (Homo sapiens (Human), UniProt Q13315). As to the kind of experiment: ATM kinase assay - determination of ATM inhibition (IC50 ATM), TR-FRET. The class given is biochemical. As to conditions: 10 μM ATP, substrate p53. Here is the method: ATM kinase assay—determination of ATM inhibition (IC50 ATM):
The IC50 value was determined with the aid of a biochemical ATM kinase assay. The assay consists of two steps: the enzymatic reaction and the detection step. Firstly, ATM (ataxia telangiectasia mutated) protein and the test substance are incubated at different concentrations with addition of substrate protein p53 and ATP. ATM mediates the phosphorylation of p53 at several positions, including at amino acid S15. The amount of phosphorylated p53 is determined with the aid of specific antibodies and the TR-FRET technique. The enzymatic ATM assay is carried out as TR-FRET (HTRF™, Cisbio Bioassays) based 384-well assay. In the first step, purified human recombinant ATM (human ATM, full length, GenBank ID NM_000051, expressed in a mammal cell line) is incubated in assay buffer for 15 minutes with the ATM inhibitor in various concentrations and without test substance as negative or neutral control. The assay buffer comprises 25 mM HEPES pH 8.0, 10 mM Mg(CH3COO)2, 1 mM MnCl2, 0,1% BSA and 0,01% Brij® 35, 5 mM dithiothreitol (DTT). […] In the second step, purified human recombinant cmyc-labelled p53 (human p53, full length, GenBank ID BC003596, expressed in Sf21 insect cells) and ATP are added, and the reaction mixture is incubated at 22° C. for 30-35 minutes. The pharmacologically relevant assay volume is 5 μl. […] The enzymatic reaction is stopped by addition of EDTA. […] After incubation, usually for 2 hours (between 1.5 and 15h), for signal development, the plates are analysed in a plate reader (EnVision, PerkinElmer) using TRF mode (and with laser excitation). […] The measurement data were processed by means of Genedata Screener software.

Assay [2] deals with phosphorylation of CHK2 (phospho-Thr68) in HCT116 cells. As to the kind of experiment: Cellular pCHK2 assay: bleomycin-induced phosphorylation of CHK2 (phospho-Thr68), immunofluorescence high-content analysis. The format is cell-based, human. As to conditions: read-out: IC50 (pCHK2). The text has this:
For the identification of substances which inhibit the phosphorylation of the protein kinase CHK2 at the amino acid threonine 68, an immunofluorescence-based “high content” analysis assay was used in HCT116 cells.
In vitro cell-based immunofluorescence assay for the identification of inhibitors of bleomycin-induced phosphorylation of CHK2 (phospho-Thr68) in the human colon carcinoma cell line HCT116:
HCT116 cells are sown out in a defined cell density in 384-well plates in culture medium (DMEM high glucose, 2 mM GlutaMax, 1 mM Na pyruvate, 10% FCS) and incubated overnight at 37° C. and 10% of CO2. On the following day, the test substances are added in a defined concentration range (1 nM to 30 μM) in combination with 10 μM bleomycin, where the concentration of the solvent DMSO is kept constant at 0.5%. […] Parallel staining of DNA with propidium iodide enables determination of the cell count. The pCHK2 signal is detected using a high-content imager (Molecular Devices IMX Ultra) and automatic image analysis using the MetaXpress software belonging to the instrument. The number of cell nuclei which have a pCHK2 signal above a defined background is determined.

A further assay has as its target PI3K p110α/p85α (human) (Homo sapiens (Human), UniProt P42336). As to the kind of experiment: PI3K p110α/p85α (human), non-radioactive assay (HTRF). The class given is biochemical. The following applies: as printed:
Here is the method: PI3K p110α/p85α (Human), Non-radioactive Assay
(§1) PI3K p110α/p85α (human) was incubated in an assay buffer comprising 10 μM phosphati-dylinositol 4,5-bisphosphate and MgATP (concentration as necessary). The reaction was initiated by addition of MgATP solution. After incubation at room temperature for 40 minutes, the reaction was stopped by addition of a solution consisting of EDTA and biotinylated phosphatidylinositol 3,4,5-trisphosphate. Finally, the detection buffer, consisting of a europium-labelled anti-GST monoclonal antibody, a GST-labelled GRP1 PH domain and streptavidin allophycocyanin, was added. The plate was read out via homogeneous time-resolved fluorescence (HTRF) and the corresponding signals were evaluated via the formula HTRF=10000×(Em665nm/Em620nm).
Background: In TR-FRET formats the signal depends on donor and acceptor labels being close together.

For the next assay, the target named is PI3K p110δ/p85α (human) (Homo sapiens (Human), UniProt O00329). The assay can be described thus: PI3K p110δ/p85α (human), non-radioactive assay (HTRF). As to conditions: as printed:
The format is biochemical. Here is the method: PI3K p110δ/p85α (Human), Non-radioactive Assay
as §1, with “p110δ/p85α” for “p110α/p85α”, “After an” for “After”, “incubation time of 30 min” for “incubation”, “temperature,” for “temperature for 40 minutes,”

Another assay deals with PI3K (p120γ) (human) (Homo sapiens (Human), UniProt P48736). As to the kind of experiment: PI3K (p120γ) (human), non-radioactive assay (HTRF). The class given is biochemical. The following applies: as printed:
Here is the method: PI3K (p120γ) (Human), Non-radioactive Assay
as §1, with “(p120γ)” for “p110α/p85α”, “After an” for “After”, “incubation time of 30 min” for “incubation”, “temperature,” for “temperature for 40 minutes,”, “HTRF=10000×(Em665nm/Em620nm). • MgATP=magnesium 5′-O—[hydroxy({[(hydroxyphosphinato)oxy]phosphinato}oxy)phosphoryl]adenosine • MgCl2=magnesium dichloride • EGTA=ethylene glycol bis(aminoethyl ether) N,N,N′,N′-tetraacetic acid • Tween 20=polysorbate 20 Medicament/pharmaceutical Composition” for “HTRF=10000×(Em665nm/Em620nm).”

The mark [3] stands for this setting: HCT116 cells, 10 μM bleomycin, 4 h.

purified human recombinant ATM (ataxia telangiectasia mutated), full length, sequence (Q13315 whole entry, change not shown): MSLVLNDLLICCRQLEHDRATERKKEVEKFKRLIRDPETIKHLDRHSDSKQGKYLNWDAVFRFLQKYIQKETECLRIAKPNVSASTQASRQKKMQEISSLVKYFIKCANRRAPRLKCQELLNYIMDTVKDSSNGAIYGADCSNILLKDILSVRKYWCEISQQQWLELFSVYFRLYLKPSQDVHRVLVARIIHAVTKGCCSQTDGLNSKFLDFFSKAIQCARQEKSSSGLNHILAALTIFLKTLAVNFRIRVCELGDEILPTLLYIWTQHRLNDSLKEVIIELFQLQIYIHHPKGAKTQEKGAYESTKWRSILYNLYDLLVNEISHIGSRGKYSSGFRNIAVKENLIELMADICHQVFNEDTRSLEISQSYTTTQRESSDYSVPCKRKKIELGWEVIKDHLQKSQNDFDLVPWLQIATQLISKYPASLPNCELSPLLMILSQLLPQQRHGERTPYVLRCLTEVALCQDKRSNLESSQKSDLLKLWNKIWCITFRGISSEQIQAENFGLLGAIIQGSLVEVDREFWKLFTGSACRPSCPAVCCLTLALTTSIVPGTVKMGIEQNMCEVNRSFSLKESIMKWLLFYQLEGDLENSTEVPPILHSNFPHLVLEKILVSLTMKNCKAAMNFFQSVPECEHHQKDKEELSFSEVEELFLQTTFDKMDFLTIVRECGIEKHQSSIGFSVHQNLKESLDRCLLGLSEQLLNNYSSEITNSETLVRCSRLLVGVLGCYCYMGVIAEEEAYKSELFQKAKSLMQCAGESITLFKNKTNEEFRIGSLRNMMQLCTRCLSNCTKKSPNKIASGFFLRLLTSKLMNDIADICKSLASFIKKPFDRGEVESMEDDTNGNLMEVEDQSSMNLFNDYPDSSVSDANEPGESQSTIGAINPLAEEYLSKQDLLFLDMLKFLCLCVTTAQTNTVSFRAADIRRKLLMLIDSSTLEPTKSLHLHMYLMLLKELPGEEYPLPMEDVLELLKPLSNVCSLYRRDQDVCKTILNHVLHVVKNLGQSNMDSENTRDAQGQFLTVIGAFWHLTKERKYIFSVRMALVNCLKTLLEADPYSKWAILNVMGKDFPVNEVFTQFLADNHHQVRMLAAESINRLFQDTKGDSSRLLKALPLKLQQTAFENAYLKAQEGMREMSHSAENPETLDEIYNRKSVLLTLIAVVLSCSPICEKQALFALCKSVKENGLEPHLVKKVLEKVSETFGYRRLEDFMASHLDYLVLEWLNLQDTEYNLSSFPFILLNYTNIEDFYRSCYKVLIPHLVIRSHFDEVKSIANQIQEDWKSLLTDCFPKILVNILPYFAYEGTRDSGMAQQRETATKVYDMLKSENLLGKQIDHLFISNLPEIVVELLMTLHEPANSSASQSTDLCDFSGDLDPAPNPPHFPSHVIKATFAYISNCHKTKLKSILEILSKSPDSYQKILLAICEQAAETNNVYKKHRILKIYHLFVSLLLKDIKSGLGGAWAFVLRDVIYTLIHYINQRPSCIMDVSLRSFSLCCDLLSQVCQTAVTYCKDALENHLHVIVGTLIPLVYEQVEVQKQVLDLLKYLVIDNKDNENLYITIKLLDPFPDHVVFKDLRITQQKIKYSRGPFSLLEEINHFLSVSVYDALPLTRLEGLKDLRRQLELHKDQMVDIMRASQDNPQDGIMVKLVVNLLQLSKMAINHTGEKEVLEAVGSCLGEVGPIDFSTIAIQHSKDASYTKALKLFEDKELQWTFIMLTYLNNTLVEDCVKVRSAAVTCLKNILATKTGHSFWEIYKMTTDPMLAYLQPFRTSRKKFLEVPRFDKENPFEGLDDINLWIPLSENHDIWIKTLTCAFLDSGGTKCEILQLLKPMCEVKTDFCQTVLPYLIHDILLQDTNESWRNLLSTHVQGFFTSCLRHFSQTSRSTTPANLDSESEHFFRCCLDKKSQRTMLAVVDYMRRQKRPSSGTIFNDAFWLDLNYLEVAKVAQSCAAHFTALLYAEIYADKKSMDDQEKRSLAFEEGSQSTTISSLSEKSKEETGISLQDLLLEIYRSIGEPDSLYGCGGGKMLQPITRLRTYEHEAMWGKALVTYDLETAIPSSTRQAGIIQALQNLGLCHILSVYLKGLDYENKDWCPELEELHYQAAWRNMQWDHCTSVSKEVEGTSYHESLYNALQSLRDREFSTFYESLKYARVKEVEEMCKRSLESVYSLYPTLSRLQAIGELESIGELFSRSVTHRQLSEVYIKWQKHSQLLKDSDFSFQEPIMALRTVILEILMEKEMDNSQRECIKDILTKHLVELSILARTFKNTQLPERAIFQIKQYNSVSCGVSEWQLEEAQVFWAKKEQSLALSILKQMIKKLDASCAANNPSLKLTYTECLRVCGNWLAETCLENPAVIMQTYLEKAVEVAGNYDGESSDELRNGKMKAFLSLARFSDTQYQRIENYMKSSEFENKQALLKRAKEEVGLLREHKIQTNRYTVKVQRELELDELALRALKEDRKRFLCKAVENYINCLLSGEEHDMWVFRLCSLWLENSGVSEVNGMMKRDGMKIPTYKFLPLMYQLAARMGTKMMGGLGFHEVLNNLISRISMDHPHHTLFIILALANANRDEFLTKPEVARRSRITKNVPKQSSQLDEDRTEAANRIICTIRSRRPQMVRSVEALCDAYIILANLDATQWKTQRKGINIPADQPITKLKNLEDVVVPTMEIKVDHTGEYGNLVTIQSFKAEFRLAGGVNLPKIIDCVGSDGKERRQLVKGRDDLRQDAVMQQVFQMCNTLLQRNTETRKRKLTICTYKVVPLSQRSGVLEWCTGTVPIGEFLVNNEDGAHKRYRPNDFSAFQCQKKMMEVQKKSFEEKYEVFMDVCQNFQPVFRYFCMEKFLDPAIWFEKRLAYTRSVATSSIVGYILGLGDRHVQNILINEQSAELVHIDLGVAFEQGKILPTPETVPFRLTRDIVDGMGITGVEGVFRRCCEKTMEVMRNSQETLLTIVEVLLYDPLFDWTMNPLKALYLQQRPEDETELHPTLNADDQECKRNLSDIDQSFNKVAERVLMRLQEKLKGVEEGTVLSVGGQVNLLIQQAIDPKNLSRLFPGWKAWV
PI3K (p120γ) (human), sequence (P48736 whole entry): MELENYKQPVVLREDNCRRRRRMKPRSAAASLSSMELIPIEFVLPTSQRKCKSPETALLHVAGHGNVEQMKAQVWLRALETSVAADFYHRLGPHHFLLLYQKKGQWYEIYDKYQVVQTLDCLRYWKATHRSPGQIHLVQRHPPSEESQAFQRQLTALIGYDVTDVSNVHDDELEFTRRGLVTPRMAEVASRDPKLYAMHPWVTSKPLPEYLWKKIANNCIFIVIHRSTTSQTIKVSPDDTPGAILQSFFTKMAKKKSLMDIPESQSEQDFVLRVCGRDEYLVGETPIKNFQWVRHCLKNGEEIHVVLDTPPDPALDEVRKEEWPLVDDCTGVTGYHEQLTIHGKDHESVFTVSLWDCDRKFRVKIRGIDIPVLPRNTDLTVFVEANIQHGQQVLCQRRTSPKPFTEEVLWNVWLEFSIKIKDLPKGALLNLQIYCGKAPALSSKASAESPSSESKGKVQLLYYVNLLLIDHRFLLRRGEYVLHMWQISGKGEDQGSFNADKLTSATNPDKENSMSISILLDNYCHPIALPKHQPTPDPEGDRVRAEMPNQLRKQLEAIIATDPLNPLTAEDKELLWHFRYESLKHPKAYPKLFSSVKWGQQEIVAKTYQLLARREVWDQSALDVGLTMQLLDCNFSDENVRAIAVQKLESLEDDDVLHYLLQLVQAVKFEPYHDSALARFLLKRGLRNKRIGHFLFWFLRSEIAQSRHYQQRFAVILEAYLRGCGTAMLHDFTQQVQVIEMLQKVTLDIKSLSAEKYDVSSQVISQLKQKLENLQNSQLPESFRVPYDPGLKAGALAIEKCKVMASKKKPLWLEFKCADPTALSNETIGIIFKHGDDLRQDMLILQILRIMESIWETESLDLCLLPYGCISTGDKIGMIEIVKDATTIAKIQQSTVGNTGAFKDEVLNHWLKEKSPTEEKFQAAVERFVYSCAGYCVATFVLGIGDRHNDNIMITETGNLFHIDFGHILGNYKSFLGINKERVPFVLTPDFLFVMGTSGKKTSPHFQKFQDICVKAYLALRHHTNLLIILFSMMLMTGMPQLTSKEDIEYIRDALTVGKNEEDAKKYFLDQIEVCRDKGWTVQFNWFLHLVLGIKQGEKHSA

Usually IC50 stands for the midpoint of a concentration-inhibition curve. For the compound `CCc1cnccc1-n1c(=O)n(C)c2cnc3cc(OC)c(-c4cnn(CC)c4)cc3c21` [compound 157, 8-(1-Ethyl-1H-pyrazol-4-yl)-1-(3-ethylpyridin-4-yl)-7-methoxy-3-methyl-1,3-dihydroimidazo[4,5-c] quinolin-2-one], the IC50 in assay [1] is less than 0.01 µM; in assay [2] (Homo sapiens, HCT-116, 4 h), less than 0.2 µM.
As to `COc1cc2ncc3c(c2cc1-c1cnn(C)c1)n(-c1ncc(OC(F)F)cc1F)c(=O)n3C` [compound 114, 1-(5-Difluoromethoxy-3-fluoropyridin-2-yl)-7-methoxy-3-methyl-8-(1-methyl-1H-pyrazol-4-yl)-1,3-dihydroimidazo[4,5-c]-quinolin-2-one], the IC50 is less than 0.001 µM in assay [1] and less than 0.2 µM in assay [2] (Homo sapiens, HCT-116, 4 h). The “ratio IC50 (ATM) vs PI3Kalpha, selectivity with respect to PI3Kalpha” value on PI3K p110α/p85α (human) was “at least 2000 times”. The “ratio IC50 (ATM) vs PI3Kdelta, selectivity with respect to PI3Kdelta” value at PI3K p110δ/p85α (human) was “at least 2000 times”. Besides, the “ratio IC50 (ATM) vs PI3Kgamma, selectivity with respect to PI3Kgamma” value on PI3K (p120γ) (human) is “at least 2000 times”.
In the case of `COc1cc2ncc3c(c2cc1-c1cnn(C)c1)n(-c1ncc(OCCO)cc1F)c(=O)n3C` [compound 67, 1-[3-Fluoro-5-(2-hydroxy-ethoxy)-2-pyridyl]-7-methoxy-3-methyl-8-(1-methylpyrazol-4-yl)imidazo-[4,5-c]quinolin-2-one], the IC50 was less than 1 µM in assay [1] and less than 0.2 µM in assay [2] (Homo sapiens, HCT-116, 4 h). For the same compound, the “ratio IC50 (ATM) vs PI3Kalpha, selectivity with respect to PI3Kalpha” value on PI3K p110α/p85α (human) is “at least 2000 times”. Also, the “ratio IC50 (ATM) vs PI3Kdelta, selectivity with respect to PI3Kdelta” value on PI3K p110δ/p85α (human) was “at least 2000 times”. In addition, on PI3K (p120γ) (human), the “ratio IC50 (ATM) vs PI3Kgamma, selectivity with respect to PI3Kgamma” value was “at least 2000 times”.
With `COCCOc1cnc(-n2c(=O)n(C)c3cnc4cc(OC)c(-c5cnn(C)c5)cc4c32)c(F)c1` [compound 66, 1-[3-Fluoro-5-(2-methoxy-ethoxy)-2-pyridyl]-7-methoxy-3-methyl-8-(1-methylpyrazol-4-yl)imidazo-[4,5-c]quinolin-2-one], the 50% inhibitory concentration (IC50) in assay [1] was less than 0.001 µM; in assay [2] (Homo sapiens, HCT-116, 4 h), less than 0.2 µM. For the same compound, on PI3K p110α/p85α (human), the “ratio IC50 (ATM) vs PI3Kalpha, selectivity with respect to PI3Kalpha” value is “at least 2000 times”. For the same compound, at PI3K p110δ/p85α (human), the “ratio IC50 (ATM) vs PI3Kdelta, selectivity with respect to PI3Kdelta” value was “at least 2000 times”. Besides, the “ratio IC50 (ATM) vs PI3Kgamma, selectivity with respect to PI3Kgamma” value at PI3K (p120γ) (human) is listed as “at least 2000 times”.
In the case of `COc1cc2ncc3c(c2cc1-c1cc[nH]n1)n(-c1cn(C)nc1C)c(=O)n3C` [compound 121, 1-(1,3-Dimethyl-1H-pyrazol-4-yl)-7-methoxy-3-methyl-8-(1H-pyrazol-3-yl)-1,3-dihydroimidazo[4,5-c]-quinolin-2-one], the concentration for half-maximal inhibition (IC50) is less than 0.01 µM in assay [1] and less than 0.2 µM in assay [2] (Homo sapiens, HCT-116, 4 h).
As for `COc1cc2ncc3c(c2cc1-c1cn(C)nc1C)n(-c1c(F)cncc1OC(F)F)c(=O)n3C` [compound 147, 1-(3-Difluoromethoxy-5-fluoropyridin-4-yl)-8-(1,3-dimethyl-1H-pyrazol-4-yl)-7-methoxy-3-methyl-1,3-dihydroimidazo[4,5-c]-quinolin-2-one], the IC50 was less than 0.001 µM in assay [1] and less than 0.2 µM in assay [2] (Homo sapiens, HCT-116, 4 h).
With `COc1cc2ncc3c(c2cc1-c1cnn(C)c1)n(-c1cn(C)nc1F)c(=O)n3C` [compound 141, 1-(3-Fluoro-1-methyl-1H-pyrazol-4-yl)-7-methoxy-3-methyl-8-(1-methyl-1H-pyrazol-4-yl)-1,3-dihydro-imidazo[4,5-c]quinolin-2-one], the IC50 is less than 0.01 µM in assay [1] and 0.2 to 1 µM in assay [2] (Homo sapiens, HCT-116, 4 h).
Turning to `CCn1cc(-c2cc3c(cc2OC)ncc2c3n(-c3c(F)cncc3OC)c(=O)n2C)cn1` [Example 13], the IC50 in assay [2] (setting [3]) was less than 0.2 µM.
On to `[2H]C([2H])([2H])Oc1cnc(-n2c(=O)n(C)c3cnc4cc(OC)c(-c5cnn(C)c5)cc4c32)c(F)c1` [compound 155, 1-[3-Fluoro-5-(trideuterio-methoxy)-2-pyridyl]-7-methoxy-3-methyl-8-(1-methylpyrazol-4-yl) imidazo-[4,5-c]quinolin-2-one], for which the IC50 in assay [1] was less than 0.001 µM; in assay [2] (Homo sapiens, HCT-116, 4 h), less than 0.2 µM.
Regarding `CNC(=O)c1cnc(-n2c(=O)n(C)c3cnc4cc(OC)c(-c5cnn(C)c5)cc4c32)c(F)c1` [compound 138, 5-Fluoro-6-[7-methoxy-3-methyl-8-(1-methyl-1H-pyrazol-4-yl)-2-oxo-2,3-dihydroimidazo[4,5-c]-quinolin-1-yl]-N-methyl-nicotinamid], the IC50 in assay [1] was less than 0.01 µM; in assay [2] (Homo sapiens, HCT-116, 4 h) it was 0.2 to 1 µM.
As to “1-(3-Fluoro-5-methylpyridin- 4-yl)-7-methoxy-3-methyl-8- (2-methyl-2H-1,2,3-triazol- 4-yl)-1,3-dihydroimidazo- [4,5-c] quinolin-2-one [compound 103]”, the IC50 is less than 0.05 µM in assay [1] and 0.2 to 1 µM in assay [2] (setting [3]).
`COc1cc2ncc3c(c2cc1-c1ccc2nc(C)[nH]c2c1)n(-c1cn(C)nc1C)c(=O)n3C` [compound 132, 1-(1,3-Dimethyl-1H-pyrazol-4-yl)-7-methoxy-3-methyl-8-(2-methyl-3H-benzo-imidazol-5-yl)-1,3-dihydro-imidazo[4,5-c]quinolin-2-one]: the IC50 in assay [1] was less than 0.001 µM.
Consider `COc1cc2ncc3c(c2cc1-c1cnn(C)c1)n(-c1ccc2ccccc2n1)c(=O)n3C` [compound 68, 7-Methoxy-3-methyl-8-(1-methyl-1H-pyrazol-4-yl)-1-quinolin-2-yl-1,3-dihydro-imidazo[4,5-c]quinolin-2-one], for which, in assay [1], the IC50 is less than 0.01 µM.
Still for that read-out and setting: to `COc1cc2ncc3c(c2cc1-c1ccn[nH]1)n(-c1c(F)cncc1OC)c(=O)n3C` [compound 124, 1-(3-Fluoro-5-methoxy-pyridin-4-yl)-7-methoxy-3-methyl-8-(2H-pyrazol-3-yl)-1,3-dihydroimidazo[4,5-c] quinolin-2-one] belongs less than 0.05 µM.
`COc1cnc(-n2c(=O)n(C)c3cnc4cc(OC)c(-c5cnn(C)c5)cc4c32)c(F)c1` [compound 105, 1-(3-Fluoro-5-methoxy-pyridin-2-yl)-7-methoxy-3-methyl-8-(1-methyl-1H-pyrazol-4-yl)-1,3-dihydro-imidazo[4,5-c]quinolin-2-one]: the half-maximal inhibitory concentration (IC50) is less than 0.001 µM in assay [1] and 0.2 to 1 µM in assay [2] (Homo sapiens, HCT-116, 4 h).
